Assay [1] deals with T1, F17aG receptor-binding domain (Escherichia coli, UniProt Q99003).
T1 construct: variants of the lectin domains with oligolysine (4Lys) tails have been constructed; made in house; host or cells: E. coli (periplasm)
Nature of the assay: biochemical. The procedure: (§1) The affinity profiles were determined by surface plasmon resonance (SPR) measurements using a BiaCore 3000 instrument (GE Healthcare). […] The proteins were covalently immobilized on CM5 sensor chips (Biacore AB) to an average density of 2000 RU (resonance units in pg/mm^2). On each chip, one flow cell was coated with a camel single domain antibody for use as a reference cell. The other three flow cells (Fc2, Fc3 and Fc4) were coated with three different F17G variants. Carbohydrate concentrations ranging from 10 µM to 10 mM in running buffer (20 mM Hepes, pH 7.4; 150 mM NaCl; 3 mM EDTA and 0.005% surfactant Tween 20) were incubated for one minute on all flow cells simultaneously, at 25 °C and at a flow rate of 30 µL/min. Complete dissociation of the carbohydrates in running buffer was verified before starting a new binding cycle. All binding cycles were performed in duplicate, including a zero concentration cycle (injection of pure running buffer). All analysis was done using the BIAeval software. In each case the equilibrium resonance signal from the reference cell was subtracted from that of the various F17G flow cells (2-1, 3-1, 4-1). A Langmuir binding isotherm with a 1:1 stoichiometry was fitted to the data, from which the equilibrium dissociation constants, Kd, were obtained.

For assay [2], the target named is T2, F17bG receptor-binding domain (Escherichia coli, UniProt Q47200).
T2 construct: variants of the lectin domains with oligolysine (4Lys) tails have been constructed; made in house; host or cells: E. coli (periplasm)
Conditions: SPR steady state, 25 °C, pH 7.4; read-out: Affinity range (Kd class), F17bG. As for the experimental part:
as §1

Assay [3] has as its target F17fG receptor-binding domain (Escherichia coli, UniProt Q9RH91). In words: Surface plasmon resonance steady-state affinity, immobilized F17fG. Conditions: SPR steady state, 25 °C, pH 7.4; read-out: Affinity range (Kd class), F17fG. As for the experimental part:
as §1
On the technique in general: In SPR one partner is held on a chip, and binding of the other changes the refractive index at the surface.

The target in assay [4] is F17eG receptor-binding domain. In words: Surface plasmon resonance steady-state affinity, immobilized F17eG. Also on record: species or system Escherichia coli. Conditions: SPR steady state, 25 °C, pH 7.4; good fit for at least three related experiments; read-out: dissociation constant Kd, F17eG. The procedure:
as §1

The target in assay [5] is F17bG lectin domain (Escherichia coli, UniProt Q47200). Conditions: array version 2, exp. 400. As for the experimental part: A microarray presenting 264 different glycans (mammalian printed array version 2) was used to evaluate if the F17G variant lectin domains differ in the range of glycan receptors that they recognize, thereby establishing tropism. The microarray was set up within the Consortium for Functional Glycomics (CFG) ([20], and supplemental data). Binding of F17G (200 µg/mL) was detected using anti-F17G polyclonal rabbit IgG (10 µg/mL), followed by fluorescently labelled goat anti-rabbit polyclonal antibodies (IgG-488, 5 µg/mL).
(§2) A microarray presenting 264 different glycans (mammalian printed array version 2 from the CFG, experiment 400) was used to evaluate whether the F17G variant lectin domains differ in the range of glycan receptors that they can recognize, thereby establishing strain-dependent tropism. […] The glycan array screening has been repeated for F17aG only on printed array version 4.1 (experiment 2053) (Figure 1).
Printed array version 2 at the Consortium for Functional Glycomics was used for glycan array screening of the variant F17G receptor binding domains. Slides were printed, with six replicates for each glycan, using glycan spotting concentrations of 100 μM, at the Consortium Carbohydrate Synthesis/Protein Expression Core D located at the Scripps Research Institute onto Schott Nexterion H slides (Schott Cat. No. 1070936B). Slide conditioning: preprinted slides were soaked in deionized water for 5 minutes at room temperature and dried under a stream of nitrogen. TSM buffer (20 mM Tris-HCl, pH 7.4, or MOPS 20 mM; 150 mM NaCl; 2 mM CaCl2, 2 mM MgCl2) was used as wash buffer (TSM buffer + 0.05% Tween 20) or binding buffer (TSM buffer + 0.05% Tween 20 + 1% BSA). (1) F17G was diluted to 200 μg/mL (Figure 1) in TSM binding buffer. (2) 50 μL of F17G was applied to the printed surface and coverslipped. (3) The slide was incubated, protected from light, in a humidified chamber for 1 hour at RT. (4) The slide was washed once in TSM wash buffer. 50 μL of the anti-F17G (10 μg/mL) polyclonal rabbit IgG were applied, coverslipped and incubated for 1 h at RT. (5) The slide was washed once in TSM wash buffer. Fifty μL of fluorescently labelled secondary goat anti-rabbit polyclonal antibodies (IgG-488, 5 µg/mL) were applied, coverslipped and incubated for 1 h at RT. (6) Slide was removed, followed by the coverslip, and washed for 10 s each in TSM wash buffer, TSM wash buffer lacking Tween 20, and deionized water. The slide was dried under a stream of nitrogen. (7) The binding image was read in a Perkin Elmer Microscanarray XL4000 scanner and tiff file of image stored. (8) Image analysis was performed using Imagene (V.6) image analysis software. (9) Raw data results files were generated in Excel format and uploaded to the Consortium database as .dat files. (10) Imagene data was uploaded to the database as .txt files.

The subject of assay [6] is FedF lectin domain. Nature of the assay: CFG glycan array version 2 (experiment 399), FedF lectin domain. In kind it is binding, Escherichia coli. Conditions: CFG glycan array experiment 399; FedF 100 μg/mL. The text has this:
The most highly, triple, sulfated disaccharide (1) is here the best binder: Galβ1,4GlcNAc sulfated at positions 3', 6' and 6 (Table 3). Sulfation of the O6 hydroxyl (2) of GlcNAc is important, as well as N-acetylation on its position 2 (3) because the lactose form has lower affinity. Monosulfation on the non-reducing end galactose (one ion at either 3', 6' or 4') and lack of sulfation at the reducing end GlcNAc each decrease the fluorescence signal dramatically.

The target in assay [7] is F17aG lectin domain (Escherichia coli, UniProt Q99003). Conditions: array version 4.1, exp. 2053.
Text: With mammalian printed array version 4.1, a new evaluation parameter was taken into account, namely % CV = 100 × Std. Dev/Mean. The highest and the lowest point from each set of six replicates have been removed so the average is of 4 values rather than 6. This eliminates some of the false hits that contain a single very high or low point. Thus, points with a high % CV should be considered suspect. […] This comparison provides information on binding specificity. The CFG glycan array data are available containing searchable results by means of flex-based data browser tools.
as §2

Assay [8] deals with FimH. Also on record: method as in PMID 18446213. Conditions: cited from earlier work.
The mark [9] stands for this setting: SPR steady state, 25 °C, pH 7.4, read-out: Affinity range (Kd class), F17aG.
Where [10] appears, read: SPR steady state, 25 °C, pH 7.4, good fit for at least three related experiments, read-out: dissociation constant Kd, F17aG.

Consider 15 compounds from paper PMC3960879 (Biology, 2013).

Like-named read-outs stand apart in the source and are kept apart here. A value given as a limit tells only on which side of the number the result lay.

Sequence of F17fG receptor-binding domain (Q9RH91 23-198): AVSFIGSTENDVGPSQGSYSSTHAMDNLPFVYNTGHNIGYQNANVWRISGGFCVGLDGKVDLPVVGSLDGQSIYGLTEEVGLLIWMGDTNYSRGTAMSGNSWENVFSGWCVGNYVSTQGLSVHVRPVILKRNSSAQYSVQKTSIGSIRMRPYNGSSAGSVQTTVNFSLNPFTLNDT
T1 sequence (Q99003 23-199): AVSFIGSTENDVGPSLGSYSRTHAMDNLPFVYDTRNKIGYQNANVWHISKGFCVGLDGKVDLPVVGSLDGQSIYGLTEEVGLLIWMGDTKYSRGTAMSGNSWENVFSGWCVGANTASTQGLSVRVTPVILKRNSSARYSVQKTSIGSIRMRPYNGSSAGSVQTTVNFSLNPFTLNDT
T2 sequence (Q47200 23-199): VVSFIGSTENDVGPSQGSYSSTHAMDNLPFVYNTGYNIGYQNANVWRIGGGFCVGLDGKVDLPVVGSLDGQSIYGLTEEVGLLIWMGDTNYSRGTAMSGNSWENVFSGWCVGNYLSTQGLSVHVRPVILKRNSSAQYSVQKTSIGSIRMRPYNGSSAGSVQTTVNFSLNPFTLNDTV
Sequence of F17aG lectin domain (Q99003 23-199): as the sequence (Q99003 23-199) above
Sequence of F17bG lectin domain (Q47200 23-199): as the sequence (Q47200 23-199) above

In general, Kd refers to a measure of binding affinity in units of concentration. On to `CC(=O)N[C@H]1C(O)O[C@H](CO)[C@@H](O)[C@@H]1OS(=O)(=O)O` (some centres unmarked) [GlcNAc3SO3^−], for which the equilibrium dissociation constant (Kd) was 1 to 10 mM in assay [1] (setting [9]), 1 to 10 mM in assay [2] and above 100 mM in assay [3].
On to `CC(=O)N[C@H]1C(O)O[C@H](COP(=O)(O)O)[C@@H](O)[C@@H]1O` (some centres unmarked) [GlcNAc6PO3^2−], for which the equilibrium dissociation constant (Kd) in assay [1] (setting [9]) was above 100 mM; in assay [2], 10 to 100 mM; in assay [3] it was above 100 mM.
`CO[C@@H]1O[C@H](CO)[C@H](O)[C@H](O[C@@H]2O[C@H](CO)[C@@H](O)[C@H](O)[C@H]2NC(C)=O)[C@H]1O` [GlcNAcβ1,3Gal, GlcNAc(β1-3)Galβ1OMe]: the Kd in assay [1] (SPR measurements, text says F17G without variant, read-out: Kd of F17G as stated in the discussion) was 0.66 mM; in assay [1] (setting [10]), 0.66 mM; in assay [1] (setting [9]), 0.1 to 1 mM; in assay [2], 1 to 10 mM; in assay [3], 0.1 to 1 mM; in assay [4], 0.28 mM.
In the case of `CC(=O)N[C@H]1[C@H](O[C@H]2[C@H](O)[C@@H](NC(C)=O)C(O)O[C@@H]2CO)O[C@H](CO)[C@@H](O)[C@@H]1O` (some centres unmarked) [GlcNAcβ1,4GlcNAc], the Kd is 3.3 mM in assay [1] (setting [10]), 1 to 10 mM in assay [1] (setting [9]), 1 to 10 mM in assay [2] and 1 to 10 mM in assay [3].
On to `CC(=O)N[C@H]1C(O)O[C@H](CO)[C@@H](O[C@@H]2O[C@H](CO)[C@@H](O)[C@H](O)[C@H]2N)[C@@H]1O[C@H](C)C(=O)O` (stereo partly drawn) [GlcNH2-MurNAc, glucosamine β1,4 N-actetylmuramic acid], for which the figures for the Kd in assay [1] (setting [9]), in assay [2] and in assay [3] were 10 to 100 mM, 10 to 100 mM and above 100 mM, respectively.
For `CC(=O)N[C@@H]1C(O)O[C@H](CO)[C@@H](O)[C@@H]1O` (some centres unmarked) [N-acetylmannosamine], the figures for the Kd in assay [1] (setting [9]), in assay [2] and in assay [3] were 1 to 10 mM, 10 to 100 mM and 1 to 10 mM, respectively.
Turning to `CC(=O)NC1C(O)OC(COS(=O)(=O)O)C(OC2OC(CO)C(O)C(OS(=O)(=O)O)C2O)C1O` (centres unmarked) [[3OSO3]Galβ1,4[6OSO3]GlcNAc], in assay [5], the “Rank among binders on CFG array, F17bG (variant b)” value came to 28th best binder. Also, the “RFU (averaged Relative Fluorescence Units for the six replicates), FedF lectin domain” value in assay [6] is given as 6,806 RFU. Moreover, the “Rank among binders on CFG array, F17aG” value in assay [7] is listed as “tenth best binder”.
As for `O=S(=O)(O)OCC1OC(O)C(O)C(O)C1OC1OC(CO)C(O)C(OS(=O)(=O)O)C1O` (centres unmarked) [[3OSO3]Galβ1,4[6OSO3]Glc], in assay [6], the “RFU (averaged Relative Fluorescence Units for the six replicates), FedF lectin domain” value is listed as 4,073 RFU.
On to `CC(=O)N[C@H]1C(O)O[C@H](COS(=O)(=O)O)[C@@H](O[C@@H]2O[C@H](COS(=O)(=O)O)[C@H](O)[C@H](OS(=O)(=O)O)[C@H]2O)[C@@H]1O` (some centres unmarked) [[3OSO3][6OSO3]Galβ1,4[6OSO3]GlcNAc], for which, in assay [6], the “RFU (averaged Relative Fluorescence Units for the six replicates), FedF lectin domain” value was 10,388 RFU.
For the compound `CC(=O)NC1C(O)OC(CO)C(OC2OC(COS(=O)(=O)O)C(OS(=O)(=O)O)C(O)C2O)C1O` (centres unmarked) [[4OSO3][6OSO3]Galβ1,4GlcNAc], in assay [6], the “RFU (averaged Relative Fluorescence Units for the six replicates), FedF lectin domain” value is 4,568 RFU.
The same measure, in the same setting: the same measure for `O=S(=O)(O)OC[C@H]1O[C@@H](O[C@H]2[C@H](O)[C@@H](O)C(O)O[C@@H]2COS(=O)(=O)O)[C@H](O)[C@@H](O)[C@H]1O` (some centres unmarked) [[6OSO3]Galβ1,4[6OSO3]Glc]: 5,405 RFU.
Regarding `CC(=O)N[C@H]1[C@H](O[C@H]2[C@H](O)[C@@H](NC(C)=O)C(O)O[C@@H]2CO)O[C@H](CO)[C@@H](O[C@@H]2O[C@H](CO[C@H]3O[C@H](CO)[C@@H](O)[C@H](O)[C@@H]3O)[C@@H](O)[C@H](O[C@H]3O[C@H](CO)[C@@H](O)[C@H](O)[C@@H]3O)[C@@H]2O)[C@@H]1O` (some centres unmarked) [oligomannose-3], in assay [8], the “increased binding compared to α-D-mannose” value is given as 100 fold.
`CC(=O)N[C@H]1[C@H](Oc2ccc([N+](=O)[O-])cc2)O[C@H](CO)[C@@H](O)[C@@H]1O` [pNP-GlcNAc, paranitrophenyl β-GlcNAc]: the Kd in assay [1] (setting [9]) is 0.1 to 1 mM; in assay [2], 10 to 100 mM; in assay [3], 1 to 10 mM.
For HOOC(CH3)CH3-3-O-GlcNAcβ1,4GlcNAcβ-Sp10, in assay [7], the “Rank among binders on CFG array, F17aG” value is recorded as “highest binding”.
[3OSO3][6OSO3]Galβ1,4GlcNAc: the “RFU (averaged Relative Fluorescence Units for the six replicates), FedF lectin domain” value in assay [6] is on record as 4,733 RFU.
